Source: patent US20200291018A1, “TAM KINASE INHIBITORS” (SYROS PHARMACEUTICALS, INC., priority 2017, published 2020)

Tests used:
MERTK = target: T1, MERTK (Homo sapiens, UniProt Q12866); experiment: TR-FRET kinase activity assay, MERTK; assay type: biochemical; conditions: for IC50: TR-FRET activity assay, ATP at Km, 60 minutes, read-out: Mer IC50; for Mer/Flt3 ratio (FLT3 IC50/Mer IC50): ratio calculated as FLT3 IC50/Mer IC50
T1 sequence (Q12866 21-999): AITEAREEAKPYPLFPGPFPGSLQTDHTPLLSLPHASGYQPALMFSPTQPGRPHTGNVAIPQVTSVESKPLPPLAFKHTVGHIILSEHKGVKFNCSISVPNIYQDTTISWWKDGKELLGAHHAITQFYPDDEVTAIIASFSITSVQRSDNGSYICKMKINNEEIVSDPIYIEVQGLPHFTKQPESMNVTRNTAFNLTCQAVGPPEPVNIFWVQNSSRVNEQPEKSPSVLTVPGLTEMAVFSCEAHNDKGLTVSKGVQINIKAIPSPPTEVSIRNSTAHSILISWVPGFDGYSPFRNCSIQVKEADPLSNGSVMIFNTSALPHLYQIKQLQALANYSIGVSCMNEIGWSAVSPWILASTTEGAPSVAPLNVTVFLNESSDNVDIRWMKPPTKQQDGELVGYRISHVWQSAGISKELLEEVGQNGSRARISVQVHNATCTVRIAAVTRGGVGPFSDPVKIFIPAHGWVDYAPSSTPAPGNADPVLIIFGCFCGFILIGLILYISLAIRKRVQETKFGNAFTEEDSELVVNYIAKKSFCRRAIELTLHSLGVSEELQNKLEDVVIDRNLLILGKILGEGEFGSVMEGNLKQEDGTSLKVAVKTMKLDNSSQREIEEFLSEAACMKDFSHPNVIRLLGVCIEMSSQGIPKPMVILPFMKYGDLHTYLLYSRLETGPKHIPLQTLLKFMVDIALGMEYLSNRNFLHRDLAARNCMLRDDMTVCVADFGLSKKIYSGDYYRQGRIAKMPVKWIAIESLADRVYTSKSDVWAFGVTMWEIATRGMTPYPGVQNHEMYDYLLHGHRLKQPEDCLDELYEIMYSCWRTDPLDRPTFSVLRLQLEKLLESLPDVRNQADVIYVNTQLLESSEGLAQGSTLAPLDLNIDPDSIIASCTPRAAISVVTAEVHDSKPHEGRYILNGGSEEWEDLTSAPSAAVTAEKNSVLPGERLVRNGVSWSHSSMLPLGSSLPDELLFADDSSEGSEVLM
Procedure, shortened: (§1)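 TR-FRET signal from Eu-labeled phospho-site antibody bound to tyrosine-phosphorylated fluorescent peptide; inhibition lowers signal, giving IC50. Reactions: 50 mM HEPES pH 7.5, 10 mM MgCl2, 1 mM EGTA, 0.01% Brij 35, 1 mM DTT, ATP at Km per enzyme, 60 min, RT.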

AXL = target: T2, AXL (Homo sapiens, UniProt P30530); experiment: TR-FRET kinase activity assay, AXL; assay type: biochemical; conditions: ATP at Km, 60 minutes
T2 sequence (P30530 26-894): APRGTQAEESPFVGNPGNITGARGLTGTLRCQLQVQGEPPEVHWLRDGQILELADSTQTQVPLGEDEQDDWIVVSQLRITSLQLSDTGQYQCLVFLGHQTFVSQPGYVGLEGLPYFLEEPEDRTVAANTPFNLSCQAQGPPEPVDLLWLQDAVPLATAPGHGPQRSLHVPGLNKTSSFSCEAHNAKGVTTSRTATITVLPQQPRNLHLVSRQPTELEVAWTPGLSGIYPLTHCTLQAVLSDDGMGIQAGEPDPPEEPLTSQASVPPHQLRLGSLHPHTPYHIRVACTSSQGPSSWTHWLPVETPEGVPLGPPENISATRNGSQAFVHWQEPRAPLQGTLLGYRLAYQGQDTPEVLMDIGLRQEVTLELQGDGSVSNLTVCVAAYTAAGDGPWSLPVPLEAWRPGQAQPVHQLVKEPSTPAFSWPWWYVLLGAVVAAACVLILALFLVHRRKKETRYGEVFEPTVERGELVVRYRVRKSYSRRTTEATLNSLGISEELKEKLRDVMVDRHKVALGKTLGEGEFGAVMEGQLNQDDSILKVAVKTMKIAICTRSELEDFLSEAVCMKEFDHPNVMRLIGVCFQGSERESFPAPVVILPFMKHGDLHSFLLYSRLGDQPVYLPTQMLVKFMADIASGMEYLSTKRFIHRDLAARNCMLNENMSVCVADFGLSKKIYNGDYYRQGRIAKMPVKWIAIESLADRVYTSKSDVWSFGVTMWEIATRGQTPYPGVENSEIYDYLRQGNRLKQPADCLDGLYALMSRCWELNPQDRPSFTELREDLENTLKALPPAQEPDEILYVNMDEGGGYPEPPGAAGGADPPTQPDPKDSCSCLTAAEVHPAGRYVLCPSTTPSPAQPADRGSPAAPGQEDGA
Procedure, shortened: as §1

SMILES | IC50 (MERTK) [nM] | Mer/Flt3 ratio (FLT3 IC50/Mer IC50) (MERTK) | IC50 (AXL) [nM]
CC[C@H](C)Nc1ncc2c(OC3CCN(C)CC3)ncc([C@H]3CC[C@H](O)CC3)c2n1 [Compound 239] | ≤ 100 | +++ (a ratio of >100) | 100 to 1000
CC[C@H](C)Nc1ncc2c(C3CCN(C)CC3)ncc([C@H]3CC[C@H](O)CC3)c2n1 [Compound 240] | ≤ 100 | +++ (a ratio of >100) | 1000 to 10000
CC[C@H](C)Nc1ncc2c(OC(CO)CO)ncc([C@H]3CC[C@H](O)CC3)c2n1 [Compound 241] | 100 to 1000 | ++ (a ratio of between 10 and 100) | 1000 to 10000
COC[C@H](C)Nc1ncc2c(OC3CCOCC3)ncc(C3=CCC4(CC3)OCCO4)c2n1 [Compound 242] | 100 to 1000 | ++ (a ratio of between 10 and 100) | 1000 to 10000
COC[C@H](C)Nc1ncc2c(OC3CCOCC3)ncc(C3CCC4(CC3)OCCO4)c2n1 [Compound 243] | ≤ 100 | +++ (a ratio of >100) | 1000 to 10000
CCc1ncc([C@H]2CC[C@H](O)CC2)c2nc(N[C@@H](C)CC)ncc12 [Compound 244] | ≤ 100 | +++ (a ratio of >100) | 100 to 1000
CC[C@H](C)Nc1ncc2c(OCC(F)(F)F)ncc([C@H]3CC[C@H](O)CC3)c2n1 [Compound 245] | ≤ 100 | +++ (a ratio of >100) | 100 to 1000
CC[C@H](C)Nc1ncc2c(OC3CC(C)(C)NC(C)(C)C3)ncc([C@H]3CC[C@H](O)CC3)c2n1 [Compound 246] | ≤ 100 | +++ (a ratio of >100) | 100 to 1000
CC[C@H](C)Nc1ncc2c(OC3C[C@@H](C)O[C@@H](C)C3)ncc([C@H]3CC[C@H](O)CC3)c2n1 (stereo partly drawn) [Compound 247] | 100 to 1000 | ++ (a ratio of between 10 and 100) | 1000 to 10000
CC[C@H](C)Nc1ncc2c(=O)n(CC34CCC(N)(CC3)CC4)cc([C@H]3CC[C@H](O)CC3)c2n1 [Compound 251] | ≤ 100 | +++ (a ratio of >100) | 100 to 1000
CCOc1ncc(CC2CCN(C)CC2)c2nc(N[C@@H](C)CC)ncc12 [Compound 253] | 1000 to 10000 | ++ (a ratio of between 10 and 100) | 1000 to 10000
CCOc1ncc(CC2CCN(C(=O)OC(C)(C)C)CC2)c2nc(N[C@@H](C)CC)ncc12 [Compound 254] | 1000 to 10000 | + (a ratio of >2.0 and <10) | 1000 to 10000
CC[C@H](C)Nc1ncc2c(C)ncc([C@H]3CC[C@H](O)CC3)c2n1 [Compound 255] | ≤ 100 | +++ (a ratio of >100) | ≤ 100
CC[C@H](C)Nc1ncc2c(OCC34CCC(O)(CC3)CC4)ncc([C@H]3CC[C@H](O)CC3)c2n1 [Compound 256] | ≤ 100 | +++ (a ratio of >100) | 1000 to 10000
CC[C@H](C)Nc1ncc2c(=O)n(CC34CCC(O)(CC3)CC4)cc([C@H]3CC[C@H](O)CC3)c2n1 [Compound 257] | ≤ 100 | +++ (a ratio of >100) | ≤ 100
COC[C@H](C)Nc1ncc2c(OC3CC(C)(C)N(C)C(C)(C)C3)ncc([C@H]3CC[C@H](O)CC3)c2n1 [Compound 259] | ≤ 100 | +++ (a ratio of >100) | ≤ 100
COC[C@H](C)Nc1ncc2c(O[C@H]3CC[C@H](O)CC3)ncc([C@H]3CC[C@H](O)CC3)c2n1 [Compound 260] | ≤ 100 | +++ (a ratio of >100) | 100 to 1000
CC[C@H](C)Nc1ncc2c(O[C@H]3CC[C@H](C(C)(C)O)CC3)ncc([C@H]3CC[C@H](O)CC3)c2n1 [Compound 261] | ≤ 100 | ++ (a ratio of between 10 and 100) | 100 to 1000
